# Measured values from patent US11466007B2, “Substituted lactams showing serotonin 5-HT receptor activity” (Sumitomo Pharma Co., Ltd., priority 2018, dated 2022).
# Columns and labels:
# [1] = Test 11: hepatotoxic risk (dansyl glutathione (dGSH) trapping assay); type: in vitro ADME; conditions: human hepatic microsome, 37° C. for 60 minutes, N.D. means below detection limit
# Procedure: Test 11: Evaluation of Hepatotoxic Risk (Dansyl Glutathione (dGSH) Trapping Assay)
# The present compound was metabolized in hepatic microsome, and reactive metabolite which reacts with dansyl glutathione (dGSH) was detected and quantified from the resulting metabolite. Measurement was carried out with a screening robot (Tecan) for metabolic reaction, and with a fluorescence detection UPLC system (Waters) for metabolite-dGSH binding concentration.
# The present compound was dissolved in DMSO to prepare 10 mmol/L test compound solution. 7.6 mL of potassium phosphate buffer (500 mmol/L, pH 7.4), 1.9 mL of human hepatic microsome (Xenotech, 20 mg protein/mL), and 1.27 mL of pure water were mixed to prepare a microsome solution. To 3.78 mL of the microsome solution was added 0.67 mL of pure water to prepare a microsome (dGSH(−)) solution. To 6.48 mL of the microsome solution was added 1.14 mL of the dGSH solution (20 mmol/L) to prepare a microsome (dGSH(+)) solution. […]
# Metabolite-dGSH binding concentration was measured by the following method, using a fluorescence detection UPLC system (Waters). […]
# Fluorescence intensity was corrected with the composition of organic solvent at the time of elution because fluorescence intensity changes depending on the composition of organic solvent.
# [2] = Test 4: metabolic stability test in human hepatic microsome; type: in vitro ADME; conditions: 0.1 mg/mL microsome, 0.1 μmol/L compound, NADPH, 37° C., 30 minutes
# In short: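 Test compound at 0.1 μmol/L incubated 30 min at 37° C with human liver microsomes (0.1 mg/mL) and NADPH (3.2 mmol/L) in 25 mmol/L phosphate buffer, pH 7.4. Residual compound quantified by LC-MS; clearance (mL/min/mg protein) = −LN(residual ratio)/30/0.1.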
smiles,measurement,setting,value
"O=C1c2ncccc2CCN1CCN1CCC(c2noc3ccccc23)CC1 [Example 22, 7-{2-[4-(1,2-Benzoisoxazol-3-yl)piperidin-1-yl]ethyl}-6,7-dihydro-1,7-naphthyridin-8(5H)-one]",Metabolite-dGSH binding concentration,[1],0.089 µM
same,Metabolic stability in human hepatic microsome,[2],0.039 mL/min/mg protein
